From US20060281791A1, “Methods of increasing proliferation of adult mammalian cardiomyocytes through p38 map kinase inhibition” (CHILDREN'S MEDICAL CENTER CORPORATION, priority 2005, published 2006)
Several values for one entry are separate records, joined by “and”; a condition that tells them apart may be missing. Equal entries are not always repeated.

Test system: neonatal rat cardiomyocytes
Assay: cDNA microarray analysis (Affymetrix Rat Expression Set 230), x-fold changes of clustered genes
Assay type: cell-based
Conditions: 72 h; experiments (1) and (2); listed as FGF
Protocol: Animal experiments were performed in accordance with guidelines of Children's Hospital, Boston and UCLA. Ventricular cardiomyocytes from fetal (E19), 2-day-old (P2) and adult (250-350 g) Wistar rats (Charles River) were isolated as described with minor modifications (Engel et al. 1999; Engel et al. 2003). After digestion of fetal or neonatal hearts (0.14 mg/ml collagenase II (Invitrogen), 0.55 mg/ml pancreatin (Sigma)) cells were cultured in DMEM/F12 (GIBCO) containing 3 mM Na-pyruvate, 0.2% BSA, 0.1 mM ascorbic acid (Sigma), 0.5% Insulin-Transferrin-Selenium (100×), penicillin (100 U/ml), streptomycin (100 μg/ml), and 2 mM L-glutamine (GIBCO). Adult cardiomyocytes were cultured for 1 day in standard medium (DMEM, 25 mM Hepes, 5 mM taurine, 5 mM creatine, 2 mM L-carnitine (Sigma), 20 U/ml insulin (GIBCO), 0.2% BSA, penicillin (100 U/ml), and streptomycin (100 μg/ml)). Cells were stimulated in culture medium without BSA containing 2 mM L-glutamine. Neonatal and adult cardiomyocytes were initially cultured for 48 h in the presence of 20 μM cytosine β-D-arabinofuranoside (araC, Sigma) and 5% horse serum before stimulation to prevent proliferation of non-myocytes. Adult cardiomyocytes were incubated another 3 days with araC during stimulation. Neonatal cardiomyocytes were stimulated every day with growth factors for BrdU and H3P analyses (FGF1 and NRG-1-1β at 50 ng/ml, IL-1β at 100 ng/ml, R&D Systems, all diluted in 0.1% BSA/PBS). SB203580 and LY294002 (Calbiochem) was added every day. Adult cardiomyocytes were stimulated with fresh medium and SB203580 every 3 days.
RNA of neonatal cardiomyocytes was prepared 72 h after stimulation using Trizol (Invitrogen). RT-PCR was performed following standard protocols (Supplemental Table S4). Affymetrix technology was applied using the Rat Expression Set 230.
To determine the effect of p38 inhibition on cardiomyocyte differentiation and proliferation, a specific inhibitor of p38α and p38β, SB203580, was used and evaluated using cDNA microarray analyses using neonatal rat cardiomyocytes. […] Expression changes of a subset of genes were validated by RT-PCR.
Stimulation of neonatal cardiomyocytes with FGF1 induces fetal gene expression. To determine if FGF1, in combination with p38 inhibition, can reverse differentiation and induce cell cycle re-entry, we repeated cDNA microarray analyses (Supplemental Table S1). […]

## FGF1: growth factor FGF1 (R&D Systems)
  Growth response protein (CL-6) expression, x-fold change: 2.5 x-fold and 1.8 x-fold
  Hepatocyte F2alpha receptor expression, x-fold change: 0.9 x-fold and 1.0 x-fold
  IBP6 expression, x-fold change: 0.6 x-fold and 0.9 x-fold
  IGF1 expression, x-fold change: 0.5 x-fold and 0.3 x-fold
  IGFBP3 expression, x-fold change: 0.3 x-fold and 0.4 x-fold
  IL12a expression, x-fold change: 2.9 x-fold and 2.8 x-fold
  IRX4 expression, x-fold change: 0.7 x-fold and 0.9 x-fold
  Id1 expression, x-fold change: 2.7 x-fold and 2.3 x-fold
  Id3a expression, x-fold change: 2.4 x-fold and 1.9 x-fold
  Integrin, alpha 6 expression, x-fold change: 2.4 x-fold and 2.5 x-fold
  Integrin, alpha 11 expression, x-fold change: 1.7 x-fold and 1.2 x-fold
  Jag1 expression, x-fold change: 0.4 x-fold and 0.6 x-fold
  Ki67 expression, x-fold change: 1.7 x-fold and 1.5 x-fold
  Kinesin family member 22 expression, x-fold change: 1.6 x-fold and 1.7 x-fold
  Kinetochore-associated protein 1 expression, x-fold change: 1.9 x-fold and 2.1 x-fold
  Kruppel-like factor 2 expression, x-fold change: 0.7 x-fold and 0.9 x-fold
  LDLR expression, x-fold change: 4.0 x-fold and 2.7 x-fold
  Lgals1 expression, x-fold change: 1.8 x-fold and 1.7 x-fold
  Lgals9 expression, x-fold change: 4.3 x-fold and 3.1 x-fold
  Lhcgr expression, x-fold change: 0.4 x-fold and 0.8 x-fold
  Lisch7 expression, x-fold change: 0.6 x-fold and 0.8 x-fold
  Lot1 expression, x-fold change: 0.3 x-fold and 0.4 x-fold
  M-protein expression, x-fold change: 8.7 x-fold and 11.0 x-fold
  MAD2-LIKE 1 expression, x-fold change: 1.5 x-fold and 2.8 x-fold
  MCAK expression, x-fold change: 1.8 x-fold and 1.7 x-fold
  MCIP1 expression, x-fold change: 3.0 x-fold and 3.3 x-fold
  MCP-3 expression, x-fold change: 1.3 x-fold and 0.7 x-fold
  MDP77 expression, x-fold change: 1.5 x-fold and 0.8 x-fold
  MKK6 expression, x-fold change: 0.2 x-fold and 0.1 x-fold
  MLC1, atrial isoform expression, x-fold change: 3.3 x-fold and 2.8 x-fold
  MLC 2a expression, x-fold change: 2.7 x-fold and 2.1 x-fold
  MLC3, alkali expression, x-fold change: 13.9 x-fold and 23.2 x-fold
  MPP1 expression, x-fold change: 1.4 x-fold and 2.0 x-fold
  MURF1 expression, x-fold change: 0.6 x-fold and 0.5 x-fold
  MURF expression, x-fold change: 0.8 x-fold and 0.9 x-fold
  Mapt expression, x-fold change: 1.7 x-fold and 1.9 x-fold
  Mdk expression, x-fold change: 0.4 x-fold and 0.6 x-fold
  Melusin expression, x-fold change: 3.8 x-fold and 3.0 x-fold
  Moesin expression, x-fold change: 2.2 x-fold and 2.4 x-fold
  Multi PDZ domain protein 1 expression, x-fold change: 0.3 x-fold and 0.6 x-fold
  Mustang expression, x-fold change: 4.8 x-fold and 5.2 x-fold
  Myopodin expression, x-fold change: 3.7 x-fold and 3.2 x-fold
  NppB expression, x-fold change: 10.4 x-fold and 11.6 x-fold
  Nppa expression, x-fold change: 3.1 x-fold and 3.5 x-fold
  Nr1h3 expression, x-fold change: 0.7 x-fold and 0.6 x-fold
  Nrtn expression, x-fold change: 0.4 x-fold and 0.6 x-fold
  Ntf3 expression, x-fold change: 0.2 x-fold and 0.3 x-fold
  NuSAP expression, x-fold change: 1.5 x-fold and 1.4 x-fold
  Nuclear receptor co-activator NRIF3 expression, x-fold change: 1.4 x-fold and 1.2 x-fold
  Osteoblast specific factor expression, x-fold change: 0.3 x-fold and 0.2 x-fold
  P57 expression, x-fold change: 0.2 x-fold and 0.3 x-fold
  PAPIN expression, x-fold change: 0.5 x-fold and 0.7 x-fold
  PEA-15 expression, x-fold change: 2.5 x-fold and 2.1 x-fold
  PRKAR2 expression, x-fold change: 1.6 x-fold and 1.2 x-fold
  PTP-RL9, receptor-type protein tyrosine phosphatase expression, x-fold change: 1.1 x-fold and 0.8 x-fold
  Pdcd4 expression, x-fold change: 0.8 x-fold and 0.7 x-fold
  Pdgfra expression, x-fold change: 0.4 x-fold and 0.3 x-fold
  Pem expression, x-fold change: 0.9 x-fold and 0.7 x-fold
  Plasminogen activator inhibitor 1 expression, x-fold change: 5.3 x-fold and 8.8 x-fold
  Pleiotrophin expression, x-fold change: 0.2 x-fold and 0.1 x-fold
  Polyamine-modulated factor 1 expression, x-fold change: 1.5 x-fold and 1.4 x-fold
  Prc1 expression, x-fold change: 2.4 x-fold and 1.9 x-fold
  Prg-1 expression, x-fold change: 0.2 x-fold and 0.3 x-fold
  Protease inhibitor 7 expression, x-fold change: 1.3 x-fold and 0.8 x-fold
  Protein-tyrosine phosphatase expression, x-fold change: 0.5 x-fold and 0.6 x-fold
  Ptpla expression, x-fold change: 3.3 x-fold and 2.2 x-fold
  Ptprc/CD45 expression, x-fold change: 0.5 x-fold and 0.7 x-fold
  RAC2 expression, x-fold change: 0.7 x-fold and 0.6 x-fold
  RAD51 expression, x-fold change: 1.5 x-fold and 1.0 x-fold
  RNA binding motif protein 5 expression, x-fold change: 0.6 x-fold and 0.5 x-fold
  ROC2 expression, x-fold change: 1.6 x-fold and 2.4 x-fold
  Rac GTPase-activating protein 1 expression, x-fold change: 1.3 x-fold and 1.9 x-fold
  Retinoic acid inducible protein 3 expression, x-fold change: 1.5 x-fold and 1.3 x-fold
  Retinoic acid receptor, gamma expression, x-fold change: 0.6 x-fold and 1.0 x-fold
  Rgpr expression, x-fold change: 0.6 x-fold and 0.9 x-fold
  Rgs3 expression, x-fold change: 1.3 x-fold and 1.9 x-fold
  Rho family GTPase 1 expression, x-fold change: 4.1 x-fold and 3.9 x-fold
  Rho-related BTB domain containing 3 expression, x-fold change: 0.5 x-fold and 0.6 x-fold
  SHARP-1/dec2/Bhlhb3 expression, x-fold change: 0.2 x-fold and 0.3 x-fold
  SPARC related modular calcium binding 2 expression, x-fold change: 0.3 x-fold and 0.4 x-fold
  STK38 expression, x-fold change: 3.9 x-fold and 2.0 x-fold
  STk18 expression, x-fold change: 1.3 x-fold and 1.9 x-fold
  Semaphorin 4B expression, x-fold change: 0.6 x-fold and 0.5 x-fold
  Semaphorin 6D-1 expression, x-fold change: 0.5 x-fold and 0.3 x-fold
  Sh3kbp1 expression, x-fold change: 1.1 x-fold and 0.9 x-fold
  Shc SH2-domain binding protein 1 expression, x-fold change: 1.6 x-fold and 1.1 x-fold
  Smooth muscle 22 protein expression, x-fold change: 1.2 x-fold and 1.4 x-fold
  Snf1lk expression, x-fold change: 3.5 x-fold and 3.9 x-fold
  Soluble fibroblast growth factor receptor IIIb (sKGF-R gene) expression, x-fold change: 0.9 x-fold and 0.8 x-fold
  Sox4 expression, x-fold change: 0.7 x-fold and 0.6 x-fold
  Sox11 expression, x-fold change: 0.9 x-fold and 1.3 x-fold
  Spag5 expression, x-fold change: 1.4 x-fold and 1.9 x-fold
  Sponf expression, x-fold change: 0.2 x-fold and 0.3 x-fold
  Stathmin expression, x-fold change: 1.2 x-fold and 1.6 x-fold
  TBX2 expression, x-fold change: 1.8 x-fold and 2.0 x-fold
  Testin expression, x-fold change: 0.6 x-fold and 0.7 x-fold
  Tgf beta 2 expression, x-fold change: 1.4 x-fold and 1.5 x-fold
  Tgfbr2 expression, x-fold change: 0.5 x-fold and 0.9 x-fold
  Thymidine kinase expression, x-fold change: 1.5 x-fold and 1.9 x-fold
  Tieg expression, x-fold change: 0.3 x-fold and 0.4 x-fold
  Tmeff1 expression, x-fold change: 2.1 x-fold and 2.4 x-fold
  Tnfrsf12a expression, x-fold change: 3.7 x-fold and 3.3 x-fold
  Topoisomerase (DNA) II alpha expression, x-fold change: 1.8 x-fold and 1.7 x-fold
  Transferrin receptor expression, x-fold change: 2.9 x-fold and 1.6 x-fold
  Tspan-2 expression, x-fold change: 2.4 x-fold and 1.8 x-fold
  Tspan-6 expression, x-fold change: 2.2 x-fold and 1.7 x-fold
  Tubulin alpha-4 expression, x-fold change: 2.7 x-fold and 2.6 x-fold
  Tubulin beta class I expression, x-fold change: 2.4 x-fold and 1.9 x-fold
  Tubulin, beta 2 expression, x-fold change: 1.3 x-fold and 1.2 x-fold
  Unc5h2 expression, x-fold change: 1.7 x-fold and 1.3 x-fold
  VEGF receptor-2FLK-1 expression, x-fold change: 1.8 x-fold and 1.6 x-fold
  VEGFD expression, x-fold change: 0.1 x-fold and 0.2 x-fold
  Vegfc expression, x-fold change: 0.4 x-fold and 0.6 x-fold
